The values that follow come from patent US7348304B1, “Fragrance material” (priority 2004, dated 2008).

For data set [1] the following is noted: prior-art characterisation; cited from earlier work.
The nature of data set [2]: Odor character / fragrance assessment of the material and fractions.
The nature of data set [3]: Assessment of stability of the compound (olfactory assessment of stored aqueous solution). The format is physicochemical. As for the experimental part:
50 ml of a 250-ppb aqueous solution of the compound of the invention according to Example I was held in a covered 100 ml glass weighing bottle for seven months. Environmental conditions were ambient room light (fluorescent and indirect sunlight during daytime; dark at night) and temperature (16-26° C.). The bottle was opened approximately bi-weekly, admitting fresh air and allowing olfactory assessment of the odor strength.

The next data set deals with subjects. Description: Determination of approximate aqueous odor threshold (paired beakers, sniffing). Format: in vivo. Further details: key: “X” means correct positive identification; “-” means unable to identify. As for the experimental part:
2 mg of the compound of the invention according to Example I were dissolved in 1.0 ml ethanol and serial dilutions made in deionized water to give test solutions of the compound at concentrations of 100, 20, 4, and 1 ppb.
Pairs of loosely-covered beakers were presented to three subjects, one beaker containing deionized water and the other a test solution. The subjects were asked to identify the beaker containing the test solution by removing the covers and sniffing, with the following results (“X” means correct positive identification, “-” means unable to identify): […]

The structures appear in SMILES notation. Where two headings read alike, the source gives them in different places.

Regarding `C=C(C[C@H](C)CO)[C@H]1CC=C(C)C1(C)C` [(−)-(1′R,2S)-2-methyl-4-(2′,2′,3′-trimethyl-3′-cyclopenten-1′-yl)-4-penten-1-ol], in data set [1], the odor entry was “sandalwood; cedar”.

On to `C[C@H]1C(=O)C[C@@H]2[C@@H]3[C@H]1[C@@]2(C)CCCC3(C)C` [The C-9 epimer, (1R,2S,7R,8R,9R)-2,6,6,9-tetramethyltricyclo-[5.4.0.0^2,8]undecan-10-one, reference compound], for which the odor character entry in data set [2] is listed as “no distinctive or useful fragrance properties”.

In the case of `CC(=O)O[C@]1(C)CC[C@@]23C[C@@H]1C(C)(C)[C@@H]2CC[C@H]3C` [cedryl acetate], in data set [1], the odor result is listed as “woody-vetiver”.

On to `CC(=O)C1=C(C)[C@@H]2C[C@@]3(C1)[C@H](C)CC[C@H]3C2(C)C` [methyl cedryl ketone], for which, in data set [1], the odor result is “musk-woody”.

As for `C[C@@H]1C(=O)C[C@@H]2[C@@H]3[C@H]1[C@@]2(C)CCCC3(C)C` [the compound of the invention, (1R,2S,7R,8R,9S)-2,6,6,9-tetramethyltricyclo[5.4.0.0^2,8]undecan-10-one], in data set [3] (250-ppb aqueous solution, seven months, ambient room light, 16-26° C., opened approximately bi-weekly), the “odor intensity after storage” value was “No decrease in odor intensity”. Besides, the stability result in data set [3] (action of light, oxygen, and moisture) was “stable against the action of light, oxygen, and moisture”. In addition, the odor character result in data set [2] (listed as Example III) is “Cedar, woody, cigar box, tobacco, slightly animal—civet. Long-lasting in dry-down”; in data set [2] (listed as The compound) it was “intense, pleasant and characteristic cedar wood odor”. Besides, the “identification of the beaker containing the test solution” value in the data set on subjects (1 ppb in deionized water, Subject 3) is reported as “X”; in the data set on subjects (4 ppb in deionized water, Subject 1), “X”; in the data set with subjects (4 ppb in deionized water, Subject 3) it was “X”; with subjects (20 ppb in deionized water, Subject 1), “X”; with subjects (20 ppb in deionized water, Subject 3), “X”; with subjects (100 ppb in deionized water, Subject 1) it was “X”. Further, the “identification of the beaker containing the test solution” value in the data set with subjects (100 ppb in deionized water, Subject 2) is recorded as “X”; in the data set on subjects (100 ppb in deionized water, Subject 3) it was “X”.

Consider `CCC(=O)C1CCC=CCCC=CCCC1` (centres unmarked) [1-(4,8-cyclododecadienyl)-1-propanone], for which the odor result in data set [1] was “cedarwood, amber, pepper”.

With `CO[C@@]1(C)CC[C@@]23C[C@@H]1C(C)(C)[C@@H]2CC[C@H]3C` [methyl cedryl ether], the odor result in data set [1] was “woody-amber”.

On to `CC(=O)/C=C/[C@@H]1C(C)=CCCC1(C)C` [(S)-alpha-ionone], for which, in data set [1], the odor result is recorded as “cedarwood, raspberry”.

As to `CC1CCC2C(C)(C)C3CC12CC1OC13C` (centres unmarked) [cedrene epoxide], the odor result in data set [1] is “woody-amber-camphor”.
